The record followed here is patent publication US7229985B2, “Amorphous substance of tricyclic triazolobenzazepine derivative” (Meiji Seika Kaisha, Ltd., priority 2001, dated 2007).

Data set [1] can be described thus: Absorption Test: oral administration, plasma compound B concentration. It counts as in vivo, beagles. The method, then: The sample produced in Comparative Example 1 or Example 1 was suspended in a 1 wt % aqueous methylcellulose solution. The suspension was administered orally to beagles (n=6) which had been subjected to fasting overnight. The difference in absorption among the samples was evaluated by comparing the area under the plasma drug concentration-time curve (AUC).
The plasma drug concentration in the collected blood was quantitatively determined according roughly to the following method.
Blood (about 0.7 mL) collected from the cephalic vein was centrifuged (4° C., about 9000×g, 10 min) in the presence of heparin to obtain plasma. Methanol (400 μL) and an internal standard substance solution (sodium salt of 7-methyl-4(5H),10-dioxo-2H-1,2,3-triazolo[4,5-c][1]benzazepine, 100 ng/mL, 100 μL) were added to the plasma (100 μL), and the mixture was stirred and centrifuged (4° C., about 9000×g, 10 min).
The supernatant was evaporated to dryness at room temperature under a nitrogen gas stream, and 150 μL of a mixed solution composed of a 10 mmol/L phosphate buffer (pH 7.0) and a methanol (8:2) was added to the residue for redissolution. The solution was then filtered by a centrifugal filter (Centricut Ultra-Mmini (KURABO INDUSTRIES LTD.), 4° C., about 9000×g, 10 min), and the filtrate was analyzed as a sample by HPLC. […]
Fluorescence detection wavelength: Ex 270 nm, Em 466 nm (GAIN=100, response=standard) […]

Data set [2] can be described thus: Dissoluvability Test (1): solubility in water or 1 wt % aqueous methylcellulose solution at 37° C. It is filed as physicochemical. The method, then:
Water or a 1 wt % aqueous methylcellulose solution was provided as a test liquid, and solubility of various samples in the test liquid was examined. Each sample in an amount of about 100 mg in terms of compound A was added to 500 mL of the test liquid kept at 37° C., and the mixture was stirred with a paddle at 200 rpm. Sampling was carried out at predetermined time intervals, and the samples were filtered through a membrane filter (Sumplep LCR 13-LG, manufactured by Millipore Corporation). The concentration of compound A in each of the filtrates was analyzed by HPLC.
In Test Example 2, HPLC was carried out under the following measuring conditions.
Detector: Ultraviolet absorptiometer (measuring wavelength: 240 nm)
Column: Inertsil ODS 2 4.6×250 mm in which a stainless tube having an inner diameter of 4.6 mm and a length of 25 cm was packed with a 5-μm octadecylsilyl silica gel for liquid chromatography.
Column temp.: Around 40° C.
Mobile phase: 0.1 wt % ammonium acetate:methanol (45:55)

Data set [3] in a line: Solubility in methylene chloride. It is filed as physicochemical.
A short description of data set [4]: Solubility in glycerin, propylene glycol, Macrogol 400 and the like. It counts as physicochemical.
A short description of data set [5]: Oral absorption of pulverized crystal. It is filed as in vivo. The settings on record: orally administered to dogs. The method, then:
In addition, an experiment in which a pulverized crystal of crystalline compound A is prepared according to the description of Japanese Patent Laid-Open No. 185013/1987 disclosing a drug, which has been rendered easily absorbable by pulverizing was carried out. The treated drug is orally administered to experimental animals such as dogs.

[6] abbreviates: test liquid 1 wt % aqueous methylcellulose solution, 37° C. (FIG. 3).
The mark [7] stands for this setting: test liquid water, 37° C., about 100 mg in 500 mL, paddle 200 rpm (FIG. 2), level reached.

In brackets after ≈: the same amount, converted by molar mass.

Turning to `COc1cc2[nH]c(=O)c3nn(C(OC(=O)OC(C)C)C(C)C)nc3c(=O)c2cc1OC` (stereo not drawn) [Example 1, 2-(1-isopropoxycarbonyloxy-2-methylpropyl)-7,8-dimethoxy-4(5H), 10-dioxo-2H-1,2,3-triazolo[4,5-c][1]benzazepine], the “plasma compound B concentration over time versus crystalline compound of Comparative Example 1” value in data set [1] (beagles, dose one-eighth of the dose of the crystalline compound) is “much higher”. Further, the “plasma compound B concentration versus crystalline compound of Comparative Example 1” value in data set [1] (suspension in 1 wt % aqueous methylcellulose, fasted beagles (FIG. 5)) is listed as “significantly higher”. For the same compound, in data set [2] (1 wt % aqueous methylcellulose solution, aqueous with cosolvent or surfactant or cyclodextrin, thermodynamic from solid, in a 1 wt % methylcellulose solution at 37° C.), the solubility (in general, the dissolved amount per volume that the medium holds) lay within 15 to 20 µg/mL (≈ 34.7 to 46.2 µM). Also, the “time for which concentration of dissolution was maintained” value in data set [2] (test liquid 1 wt % aqueous methylcellulose solution, 37° C.) was 4 h. The concentration of dissolution result in data set [2] (setting [6]) is “not less than 18 μg/mL”; in data set [2] (setting [7]), “about 5 μg/mL”. In addition, in data set [2] (test liquid water, 37° C., value to which the concentration then lowered (FIG. 2)), the “concentration of dissolution after lowering” value is “about 3 μg/mL”.
On to `COc1cc2[nH]c(=O)c3nn(C(OC(=O)OC(C)C)C(C)C)nc3c(=O)c2cc1OC` (stereo not drawn) [Comparative Example 1, 2-(1-Isopropoxycarbonyloxy-2-methylpropyl)-7,8-dimethoxy-4(5H), 10-dioxo-2H-1,2,3-triazolo[4,5-c][1]benzazepine], for which, in data set [3], the “solubility in methylene chloride” value is given as “about 1 % by weight”. The “solubility in glycerin, propylene glycol, Macrogol 400 and the like” value in data set [4] is recorded as “not on such a level that can make crystalline compound A pharmaceutically usable”. For the same compound, in data set [5], the improvement in absorption entry is recorded as “not more than expected”. Besides, the concentration of dissolution entry in data set [2] (setting [6]) and in data set [2] (setting [7]) was “not more than 1 μg/mL” in each case.
